Numbers after ± are expanded uncertainties.
Assay: xn = mol fraction of the nth substance listed
Settings: Liquid, Vibrating tube method

CCCCCCCCCC [decane] + CCCCCCCC
Settings	mass density [kg/m3]
333.12 K, 16000 kPa, x2 = 0.2801	707.59 ± 0.49
333.12 K, 17000 kPa, x2 = 0.0616	713.28 ± 0.49
333.12 K, 17000 kPa, x2 = 0.2801	708.43 ± 0.5
333.12 K, 18000 kPa, x2 = 0.0616	714.06 ± 0.5
333.12 K, 18000 kPa, x2 = 0.2801	709.25 ± 0.5
333.12 K, 19000 kPa, x2 = 0.0616	714.88 ± 0.5
333.12 K, 19000 kPa, x2 = 0.2801	710.06 ± 0.51
333.12 K, 20000 kPa, x2 = 0.0616	715.65 ± 0.51
333.12 K, 20000 kPa, x2 = 0.2801	710.83 ± 0.52
333.12 K, 21000 kPa, x2 = 0.0616	716.44 ± 0.52
333.12 K, 21000 kPa, x2 = 0.2801	711.62 ± 0.52
333.12 K, 22000 kPa, x2 = 0.0616	717.15 ± 0.52
333.12 K, 22000 kPa, x2 = 0.2801	712.4 ± 0.53
333.12 K, 23000 kPa, x2 = 0.0616	717.89 ± 0.53
333.12 K, 23000 kPa, x2 = 0.2801	713.12 ± 0.54
333.12 K, 24000 kPa, x2 = 0.0616	718.59 ± 0.54
333.12 K, 24000 kPa, x2 = 0.2801	713.84 ± 0.54
333.12 K, 25000 kPa, x2 = 0.0616	719.3 ± 0.54
333.12 K, 25000 kPa, x2 = 0.2801	714.53 ± 0.55
333.13 K, 1000 kPa, x2 = 0.5314	686.94 ± 0.42
333.13 K, 1000 kPa, x2 = 0.9623	672.68 ± 0.42
333.13 K, 2000 kPa, x2 = 0.5314	687.94 ± 0.42
333.13 K, 2000 kPa, x2 = 0.9623	673.73 ± 0.43
333.13 K, 3000 kPa, x2 = 0.5314	688.95 ± 0.43
333.13 K, 3000 kPa, x2 = 0.9623	674.77 ± 0.43
333.13 K, 4000 kPa, x2 = 0.5314	689.94 ± 0.43
333.13 K, 4000 kPa, x2 = 0.9623	675.8 ± 0.44
333.13 K, 5000 kPa, x2 = 0.5314	690.92 ± 0.44
333.13 K, 5000 kPa, x2 = 0.9623	676.82 ± 0.44
333.13 K, 6000 kPa, x2 = 0.5314	691.92 ± 0.44
333.13 K, 6000 kPa, x2 = 0.9623	677.85 ± 0.45
333.13 K, 7000 kPa, x2 = 0.5314	692.89 ± 0.45
333.13 K, 7000 kPa, x2 = 0.9623	678.88 ± 0.45
333.13 K, 8000 kPa, x2 = 0.5314	693.87 ± 0.45
333.13 K, 8000 kPa, x2 = 0.9623	679.95 ± 0.46
333.13 K, 9000 kPa, x2 = 0.5314	694.82 ± 0.46
333.13 K, 9000 kPa, x2 = 0.9623	680.98 ± 0.46
333.13 K, 10000 kPa, x2 = 0.5314	695.75 ± 0.46
333.13 K, 10000 kPa, x2 = 0.9623	681.98 ± 0.47
333.13 K, 10990 kPa, x2 = 0.5314	696.68 ± 0.47
333.13 K, 10990 kPa, x2 = 0.9623	682.99 ± 0.48
333.13 K, 12000 kPa, x2 = 0.5314	697.6 ± 0.47
333.13 K, 12000 kPa, x2 = 0.9623	683.98 ± 0.48
333.13 K, 13000 kPa, x2 = 0.5314	698.5 ± 0.48
333.13 K, 13000 kPa, x2 = 0.9623	684.93 ± 0.49
333.13 K, 14000 kPa, x2 = 0.5314	699.4 ± 0.49
333.13 K, 14000 kPa, x2 = 0.9623	685.89 ± 0.5
333.13 K, 15000 kPa, x2 = 0.5314	700.28 ± 0.49
333.13 K, 15000 kPa, x2 = 0.9623	686.87 ± 0.5
333.13 K, 16000 kPa, x2 = 0.5314	701.15 ± 0.5
333.13 K, 16000 kPa, x2 = 0.9623	687.76 ± 0.51
333.13 K, 17000 kPa, x2 = 0.5314	702 ± 0.5
333.13 K, 17000 kPa, x2 = 0.9623	688.67 ± 0.52
333.13 K, 18000 kPa, x2 = 0.5314	702.88 ± 0.51
333.13 K, 18000 kPa, x2 = 0.9623	689.57 ± 0.52
333.13 K, 19000 kPa, x2 = 0.5314	703.68 ± 0.52
333.13 K, 19000 kPa, x2 = 0.9623	690.49 ± 0.53
333.13 K, 20000 kPa, x2 = 0.5314	704.48 ± 0.52
333.13 K, 20000 kPa, x2 = 0.9623	691.35 ± 0.54
333.13 K, 21000 kPa, x2 = 0.5314	705.27 ± 0.53
333.13 K, 21000 kPa, x2 = 0.9623	692.18 ± 0.54
333.13 K, 22000 kPa, x2 = 0.5314	706.05 ± 0.54
333.13 K, 22000 kPa, x2 = 0.9623	693 ± 0.55
333.13 K, 23000 kPa, x2 = 0.5314	706.81 ± 0.54
333.13 K, 23000 kPa, x2 = 0.9623	693.78 ± 0.56
333.13 K, 24000 kPa, x2 = 0.5314	707.53 ± 0.55
333.13 K, 24000 kPa, x2 = 0.9623	694.55 ± 0.57
333.13 K, 25000 kPa, x2 = 0.5314	708.26 ± 0.56
333.13 K, 25000 kPa, x2 = 0.9623	695.28 ± 0.57
333.14 K, 1000 kPa, x2 = 0.7736	679.32 ± 0.42
333.14 K, 2000 kPa, x2 = 0.7736	680.38 ± 0.42
333.14 K, 3000 kPa, x2 = 0.7736	681.42 ± 0.43
333.14 K, 4000 kPa, x2 = 0.7736	682.44 ± 0.43
333.14 K, 5000 kPa, x2 = 0.7736	683.46 ± 0.44
333.14 K, 6000 kPa, x2 = 0.7736	684.5 ± 0.44
333.14 K, 7000 kPa, x2 = 0.7736	685.49 ± 0.45
333.14 K, 8000 kPa, x2 = 0.7736	686.5 ± 0.46
333.14 K, 9000 kPa, x2 = 0.7736	687.47 ± 0.46
333.14 K, 10000 kPa, x2 = 0.7736	688.42 ± 0.47
333.14 K, 10990 kPa, x2 = 0.7736	689.42 ± 0.47
333.14 K, 12000 kPa, x2 = 0.7736	690.37 ± 0.48
333.14 K, 13000 kPa, x2 = 0.7736	691.27 ± 0.48
333.14 K, 14000 kPa, x2 = 0.7736	692.21 ± 0.49
333.14 K, 15000 kPa, x2 = 0.7736	693.1 ± 0.5
333.14 K, 16000 kPa, x2 = 0.7736	694.02 ± 0.5
333.14 K, 17000 kPa, x2 = 0.7736	694.9 ± 0.51
333.14 K, 18000 kPa, x2 = 0.7736	695.77 ± 0.52
333.14 K, 19000 kPa, x2 = 0.7736	696.62 ± 0.52
333.14 K, 20000 kPa, x2 = 0.7736	697.46 ± 0.53
333.14 K, 21000 kPa, x2 = 0.7736	698.28 ± 0.54
333.14 K, 22000 kPa, x2 = 0.7736	699.09 ± 0.54
333.14 K, 23000 kPa, x2 = 0.7736	699.86 ± 0.55
333.14 K, 24000 kPa, x2 = 0.7736	700.61 ± 0.56
333.14 K, 25000 kPa, x2 = 0.7736	701.34 ± 0.57
